Data on one compound can be found in ChEMBL document CHEMBL4823324, “Discovery of BMS-986318, a Potent Nonbile Acid FXR Agonist for the Treatment of Nonalcoholic Steatohepatitis” (ACS Med Chem Lett, 2021).

The structures appear in SMILES notation. pEC50, pIC50: −log10 of the molar value. Bounds are passed on as bounds.

For one data set, the target named is T1, Cytochrome P450 2C8 (Homo sapiens, UniProt P10632).
T1 sequence (P10632 whole entry): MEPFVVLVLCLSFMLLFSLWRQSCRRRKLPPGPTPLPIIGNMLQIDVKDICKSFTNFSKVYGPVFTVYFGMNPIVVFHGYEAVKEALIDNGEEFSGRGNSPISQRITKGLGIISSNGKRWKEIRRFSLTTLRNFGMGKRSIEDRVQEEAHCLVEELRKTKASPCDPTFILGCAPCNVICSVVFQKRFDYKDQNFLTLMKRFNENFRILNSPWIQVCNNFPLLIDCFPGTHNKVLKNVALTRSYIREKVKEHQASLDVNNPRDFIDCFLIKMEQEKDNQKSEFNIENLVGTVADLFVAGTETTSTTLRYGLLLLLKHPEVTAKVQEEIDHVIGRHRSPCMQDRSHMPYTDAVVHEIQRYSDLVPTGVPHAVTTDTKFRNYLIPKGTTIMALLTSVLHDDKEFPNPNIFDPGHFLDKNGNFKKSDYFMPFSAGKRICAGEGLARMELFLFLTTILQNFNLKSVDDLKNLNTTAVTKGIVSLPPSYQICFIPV
Description: Inhibition of CYP2C8 (unknown origin) expressed in baculovirus infected insect supersomes preincubated for 15 mins followed by addition of NADPH regenerating system and measured after 2 hrs by fluorescence based analysis. Type of data set: ADME.

The target of data set [1] is T2, Peroxisome proliferator-activated receptor gamma (Homo sapiens, UniProt P37231).
T2 sequence (P37231 whole entry): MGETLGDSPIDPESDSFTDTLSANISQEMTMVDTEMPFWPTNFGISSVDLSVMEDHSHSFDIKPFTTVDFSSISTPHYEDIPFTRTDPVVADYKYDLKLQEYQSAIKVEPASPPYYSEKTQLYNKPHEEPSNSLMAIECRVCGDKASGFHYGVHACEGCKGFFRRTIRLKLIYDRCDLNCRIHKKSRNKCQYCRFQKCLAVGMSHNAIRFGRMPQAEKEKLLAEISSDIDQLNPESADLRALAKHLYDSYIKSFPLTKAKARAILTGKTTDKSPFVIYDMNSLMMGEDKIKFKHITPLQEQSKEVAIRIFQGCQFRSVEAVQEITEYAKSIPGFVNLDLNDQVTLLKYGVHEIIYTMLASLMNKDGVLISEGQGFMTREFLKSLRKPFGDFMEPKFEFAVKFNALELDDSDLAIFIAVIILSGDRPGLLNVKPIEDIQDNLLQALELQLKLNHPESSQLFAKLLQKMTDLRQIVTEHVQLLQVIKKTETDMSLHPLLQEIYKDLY
Description: Activation of PPARgamma LBD (unknown origin) co-expressed with Gal4UAS-luciferase reporter in HEK293 cells incubated for 24 hrs by Steady-Glo luciferase reporter gene based luminescence analysis. Type of data set: cell-based. Background: In a reporter assay the amount or activity of a reporter protein is the signal.

Data set [2] has as its target T3, Oxysterols receptor LXR-beta (Homo sapiens, UniProt P55055).
T3 sequence (P55055 whole entry): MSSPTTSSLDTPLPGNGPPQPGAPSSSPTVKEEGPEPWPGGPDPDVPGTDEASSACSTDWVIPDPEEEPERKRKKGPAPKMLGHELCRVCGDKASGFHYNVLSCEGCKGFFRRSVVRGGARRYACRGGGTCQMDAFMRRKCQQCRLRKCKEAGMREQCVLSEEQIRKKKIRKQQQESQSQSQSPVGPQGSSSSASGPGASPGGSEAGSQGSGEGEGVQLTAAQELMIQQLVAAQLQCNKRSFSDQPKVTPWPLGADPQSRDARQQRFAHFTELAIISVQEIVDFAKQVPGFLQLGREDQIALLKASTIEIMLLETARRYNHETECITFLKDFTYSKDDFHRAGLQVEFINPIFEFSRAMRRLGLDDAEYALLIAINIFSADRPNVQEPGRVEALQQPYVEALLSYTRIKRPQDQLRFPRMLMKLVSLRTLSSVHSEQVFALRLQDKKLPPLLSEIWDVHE
The data set is described as follows: Activation of human LXRbeta co-expressed with TK-luciferase reporter in African green monkey CV-1 cells incubated for overnight by Steady-Glo luciferase reporter gene based luminescence analysis. The class given is cell-based.

A further data set addresses T4, Glucocorticoid receptor (Homo sapiens, UniProt P04150).
T4 sequence (P04150 whole entry): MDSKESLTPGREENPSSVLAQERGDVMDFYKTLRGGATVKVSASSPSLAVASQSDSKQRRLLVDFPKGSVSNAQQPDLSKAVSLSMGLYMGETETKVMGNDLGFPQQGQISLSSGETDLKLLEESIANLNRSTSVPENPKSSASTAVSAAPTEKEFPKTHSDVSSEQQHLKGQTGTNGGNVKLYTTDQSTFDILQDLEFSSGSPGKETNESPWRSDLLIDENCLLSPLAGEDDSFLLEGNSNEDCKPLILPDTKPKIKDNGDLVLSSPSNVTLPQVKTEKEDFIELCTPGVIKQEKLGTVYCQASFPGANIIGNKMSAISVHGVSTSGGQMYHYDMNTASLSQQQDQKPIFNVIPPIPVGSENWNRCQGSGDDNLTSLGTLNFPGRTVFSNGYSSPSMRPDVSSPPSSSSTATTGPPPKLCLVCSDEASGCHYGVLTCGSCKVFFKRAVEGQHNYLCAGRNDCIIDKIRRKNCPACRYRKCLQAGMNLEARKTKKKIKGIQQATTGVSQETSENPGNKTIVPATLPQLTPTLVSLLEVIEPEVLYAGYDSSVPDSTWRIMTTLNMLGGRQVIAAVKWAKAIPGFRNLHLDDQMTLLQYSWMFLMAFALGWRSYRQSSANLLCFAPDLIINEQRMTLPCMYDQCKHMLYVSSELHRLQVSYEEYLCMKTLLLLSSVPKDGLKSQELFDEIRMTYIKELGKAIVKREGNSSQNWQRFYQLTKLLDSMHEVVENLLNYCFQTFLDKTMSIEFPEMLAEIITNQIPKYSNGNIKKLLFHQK
Description: Activation of glucocorticoid receptor (unknown origin) by fluorescence polarization based competition assay. Background: Polarisation of emitted light reports the rotation of a fluorescent probe.

Data set [3] can be described thus: AUC in C57B6 mouse at 1 mg/kg, iv. Set-up: dose 1 mg/kg. The class given is ADME, organism-based. The following applies: in vivo.
The nature of data set [4]: Plasma protein binding in C57B6 mouse assessed as unbound fraction at 1 mg/kg, iv. The class given is ADME, organism-based. The following applies: in vivo.

As for `O=C(O)c1cc(C(F)(F)F)c2cc(N3CCC4(C=C(c5c(-c6c(Cl)cncc6Cl)noc5C5CC5)C4)CC3)ccc2n1`, the pIC50 (commonly the negative decadic logarithm of the IC50, by convention in mol/L) against Cytochrome P450 2C8 was 5.38. The negative-log EC50 (pEC50) (in data set [1]; in data set [2]; at Glucocorticoid receptor) was less than 4.40 throughout. In addition, in data set [3], the AUC (in general, concentration integrated over time) stood at 9.32 µM·h. Further, in data set [4], the Fu is reported as less than 0.01%.
